Experimental data taken from PubChem BioAssay AID2060626 (Molecular Pharmacology Branch, DTP, NCI, 2025).
Where “and” joins values, the source holds several entries; their conditions need not be identical. Identical values can stand only once.

Test system: 168753-222-R-J1-PDC complex spheroid viability
Test: Anticancer human tumor 168753-222-R-J1-PDC patient-derived bladder carcinoma cell line growth inhibition [CLK]
Details: for viability, T/C: stronger effect = lower value; active = viability on the fitted dose curve at most 10% of control; inactive = the rest
Description: A high-throughput screen of multi-cell type tumor spheroids was designed to identify active combinations of […] and targeted small molecules. Complex spheroids include a stromal component modeled by human endothelial cells (HUVEC) and fibroblasts modeled by human mesenchymal stem cells (MSCs). The concentration ranges selected for each drug and investigational agent were based upon clinically achievable concentrations if the clinical Cmax of the agent was known.
Compounds. The drugs and investigational agents: cirtuvivint (SM08502; NSC835563), CC-671 (NSC850746), vemurafenib (NSC761431), tapotoclax (NSC804041), sotorasib (NSC818433), adagrasib (NSC831453), MRTX-1133 (NSC836407), BAY2416964 (NSC825713), copanlisib (NSC816437), inavolisib (NSC800729), abemaciclib (NSC768073), osimertinib (NSC779217), entinostat (NSC756642), eltanexor (KPT-8602, NSC794443), venetoclax (NSC766270), ceralasertib (NSC777638), bortezomib (NSC756655), olaparib (NSC753686), talazoparib (NSC767125), alisertib (NSC759677), peposertib (NSC802822), gemcitabine (NSC613327), 5-fluorouracil (NSC19893), SN-38 (NSC673596), oxaliplatin (NSC266046), paclitaxel (NSC125973), and doxorubicin (NSC123127), were obtained from the National Cancer Institute (NCI) Developmental Therapeutics Program Chemical Repository. The FDA-approved anticancer drug set is available from the Developmental Therapeutics Program at https://dtp.cancer.gov/organization/dscb/obtaining/available plates.htm. […] The stock solutions were prepared in dimethyl sulfoxide (DMSO, Sigma-Aldrich, St. Louis, MO, cat. D2650), except for the platinum complexes which were prepared in saline (Quality Biological, Gaithersburg, MD, cat. 114-055-101), at 800-fold the tested concentration and stored at -70 degrees C prior to their use. All drugs and investigational agents were tested over a range starting from a high concentration at or near the clinical Cmax and decreasing in half-log increments. If the clinical Cmax for an agent had not been determined, the highest concentration tested was 10 microM.
Cell Culture. All cells were maintained in an incubator at 37 degrees C and 5% CO2 with 95% humidity. The PDC lines were cultured according to standard operating procedures established by the NCI PDMR. Briefly, all PDCs were thawed and cultured in Matrigel-coated flasks prepared with a working solution of 1X Ham's F-12 nutrient mix, without supplementation (Invitrogen, Waltham, MA, cat. 11765054), 100 U/mL penicillin-streptomycin (Invitrogen, cat. 15140122), and 2.5% Matrigel (Corning Inc., Corning, NY, cat. 354248) for the first three passages. The 947758-054-R-J2-PDC line was cultured in 6B/Colon 1A media, which includes advanced DMEM/F-12 (Thermo Fisher Scientific, cat. 12634028), 10 mM HEPES (Thermo Fisher Scientific, cat. 15630080), 1X GlutaMAX supplement (Thermo Fisher Scientific, cat. 35050061), 0.1 mg/mL primocin (InvivoGen, cat. ant-pm-2), 10% defined fetal bovine serum, heat inactivated (HyClone Laboratories Inc., cat. SH30070.03HI), 1.25 mM N-Acetyl-L-cysteine (Sigma-Aldrich, cat. A9165), 10 mM nicotinamide (Sigma-Aldrich, cat. N0636), 1X B-27 supplement (Thermo Fisher Scientific, cat. 17504044), 1X N-2 supplement (Thermo Fisher Scientific, cat. 17502048), and 10 microM Y-27632 dihydrochloride (Tocris Bioscience, cat. 1254). The 876862-298-R-J1-PDC was cultured in 6E media, which includes all 6B/Colon 1A media components plus 50% L-WRN conditioned media (ATCC, cat. CRL-3276), 50 ng/mL recombinant human EGF recombinant protein (hEGF; Thermo Fisher Scientific, cat. PHG0311), 10 ng/mL recombinant human fibroblast growth factor 10 (hGFG-10; PeproTech, cat. 100-26), 1 ng/mL recombinant human fibroblast growth factor 2 (hFGF-2; PeproTech, cat. 100-18B), and 1 µM prostaglandin E2 (PGE2; Tocris, cat. 2296). The 227483-062-R1-J1-PDC line was cultured in Panc media, containing all 6E components except hFGF-2, with the addition of 500 nM SB-431542 (Selleckchem, cat. S1067) and 10 nM gastrin (Tocris, cat. 3006). […]

[1] = curve of first compound, second compound 0.0316 µM
[2] = curve of first compound, second compound 0.1 µM
[3] = curve of first compound, second compound 0.316 µM
[4] = curve of first compound, second compound 1 µM
[5] = curve of first compound, second compound 3.16 µM
[6] = curve of first compound, second compound 10 µM
[7] = second compound 0.0316 µM, first compound 0.0316 µM
[8] = second compound 0.0316 µM, first compound 0.1 µM
[9] = second compound 0.0316 µM, first compound 0.316 µM
[10] = second compound 0.0316 µM, first compound 1 µM
[11] = second compound 0.1 µM, first compound 0.0316 µM
[12] = second compound 0.1 µM, first compound 0.1 µM
[13] = second compound 0.1 µM, first compound 0.316 µM
[14] = second compound 0.1 µM, first compound 1 µM
[15] = second compound 0.316 µM, first compound 0.0316 µM
[16] = second compound 0.316 µM, first compound 0.1 µM
[17] = second compound 0.316 µM, first compound 0.316 µM
[18] = second compound 0.316 µM, first compound 1 µM
[19] = second compound 1 µM, first compound 0.0316 µM
[20] = second compound 1 µM, first compound 0.1 µM
[21] = second compound 1 µM, first compound 0.316 µM
[22] = second compound 1 µM, first compound 1 µM
[23] = second compound 3.16 µM, first compound 0.0316 µM
[24] = second compound 3.16 µM, first compound 0.1 µM
[25] = second compound 3.16 µM, first compound 0.316 µM
[26] = second compound 3.16 µM, first compound 1 µM
[27] = second compound 10 µM, first compound 0.0316 µM
[28] = second compound 10 µM, first compound 0.1 µM
[29] = second compound 10 µM, first compound 0.316 µM
[30] = second compound 10 µM, first compound 1 µM
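Also: viability measured after seven days of drug exposure.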
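For viability, T/C in this document: luminescence signal used as surrogate for viable cell amount; 100% = DMSO vehicle control wells.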

COc1c(OCCCN2CCOCC2)ccc2c3n(c(=NC(=O)c4cnc(N)nc4)nc12)CCN3 + CN1CCN(c2cc(C(=O)Nc3cc4cc(-c5cnn(C)c5)ccc4cn3)ccn2)CC1
inactive: viability, T/C (second compound 0.0316 µM, first compound 0.00316 µM) 49% | viability, T/C (second compound 0.0316 µM, first compound 0.01 µM) 28.7% | viability, T/C [7] 11.2% | viability, T/C (second compound 0.1 µM, first compound 0.00316 µM) 31.4% | viability, T/C (second compound 0.1 µM, first compound 0.01 µM) 21.4% | viability, T/C (second compound 0.316 µM, first compound 0.00316 µM) 13.2%
< 3.16 nM: IC50 [1] | IC50 [2] | IC50 [3] | IC50 [4] | IC50 [5] | IC50 [6]
active: viability, T/C [8] 7.62% | viability, T/C [9] 4.48% | viability, T/C [10] 3.95% | viability, T/C [11] 7.93% | viability, T/C [12] 4.89% | viability, T/C [13] 1.94% | viability, T/C [14] 0.48% | viability, T/C (second compound 0.316 µM, first compound 0.01 µM) 10.1% | viability, T/C [15] 2.34% | viability, T/C [16] 0.36% | viability, T/C [17] 0.18% | viability, T/C [18] 1.84% | viability, T/C (second compound 1 µM, first compound 0.00316 µM) 0.61% | viability, T/C (second compound 1 µM, first compound 0.01 µM) 0.25% | viability, T/C [19] 0.08% | viability, T/C [20] 0.05% | viability, T/C [21] 0.06% | viability, T/C [22] 0.09% | viability, T/C (second compound 3.16 µM, first compound 0.00316 µM) 1.35% | viability, T/C (second compound 3.16 µM, first compound 0.01 µM) 0.2% | viability, T/C [23] 0.08% | viability, T/C [24] 0.05% | viability, T/C [25] 0.09% | viability, T/C [26] 0.12% | viability, T/C (second compound 10 µM, first compound 0.00316 µM) 0.06% | viability, T/C (second compound 10 µM, first compound 0.01 µM) 0.11% | viability, T/C [27] 0.17% | viability, T/C [28] 0.73% | viability, T/C [29] 0.21% | viability, T/C [30] 0.22%

CC(CO)NC(=O)c1cc(-c2ccc(Cl)cc2)nn(-c2cnn(C)c2)c1=O (stereo not drawn)
inactive: viability, T/C (compound 0.0316 µM) 105% and 101% | viability, T/C (compound 0.1 µM) 105% and 90.6% | viability, T/C (compound 0.316 µM) 94.4% and 95.7% | viability, T/C (compound 1 µM) 94.6% and 100% | viability, T/C (compound 3.16 µM) 92.7% and 107% | viability, T/C (compound 10 µM) 89.6% and 82.1%
> 10000 nM: IC50 (curve of compound)

CC(=O)O[C@H]1C(=O)[C@@]2(C)[C@H]([C@H](OC(=O)c3ccccc3)[C@]3(O)C[C@H](OC(=O)[C@H](O)[C@@H](NC(=O)c4ccccc4)c4ccccc4)C(C)=C1C3(C)C)[C@]1(OC(C)=O)CO[C@@H]1C[C@@H]2O
inactive: viability, T/C (compound 0.0316 µM) 22.5% and 55.4% | viability, T/C (compound 0.1 µM) 10.6% and 32.8% | viability, T/C (compound 0.316 µM) 11.2% and 23.4% | viability, T/C (compound 1 µM) 12.6% and 36.7% | viability, T/C (compound 3.16 µM) 16% and 32.8% | viability, T/C (compound 10 µM) 20.1% and 42.8%
< 31.6 nM: IC50 (curve of compound)

O=C(c1cc(Cc2n[nH]c(=O)c3ccccc23)ccc1F)N1CCN(C(=O)C2CC2)CC1 + CNC(=O)c1ccc(Nc2nc(OC3CCCC3)c3c(-c4ccc5nc(C)oc5c4)c[nH]c3n2)c(OC)c1
> 10000 nM: IC50 [1] | IC50 [2] | IC50 [3]
inactive: viability, T/C [7] 105% | viability, T/C [8] 113% | viability, T/C [9] 103% | viability, T/C [10] 118% | viability, T/C (second compound 0.0316 µM, first compound 3.16 µM) 114% | viability, T/C (second compound 0.0316 µM, first compound 10 µM) 95.5% | viability, T/C [11] 92.3% | viability, T/C [12] 86.1% | viability, T/C [13] 92.8% | viability, T/C [14] 95% | viability, T/C (second compound 0.1 µM, first compound 3.16 µM) 99.2% | viability, T/C (second compound 0.1 µM, first compound 10 µM) 93.7% | viability, T/C [15] 76.8% | viability, T/C [16] 74.2% | viability, T/C [17] 68.2% | viability, T/C [18] 63.6% | viability, T/C (second compound 0.316 µM, first compound 3.16 µM) 84.8% | viability, T/C (second compound 0.316 µM, first compound 10 µM) 70.4% | viability, T/C [19] 39.7% | viability, T/C [20] 41% | viability, T/C [21] 37.3% | viability, T/C [22] 39.7% | viability, T/C (second compound 1 µM, first compound 3.16 µM) 44.4% | viability, T/C (second compound 1 µM, first compound 10 µM) 38.4% | viability, T/C [23] 24.1% | viability, T/C [24] 26.2% | viability, T/C [25] 22.7% | viability, T/C [26] 17.8% | viability, T/C (second compound 3.16 µM, first compound 3.16 µM) 22.3% | viability, T/C (second compound 3.16 µM, first compound 10 µM) 25.5% | viability, T/C [27] 17.8% | viability, T/C [28] 18.5% | viability, T/C [29] 18.7% | viability, T/C [30] 18.1% | viability, T/C (second compound 10 µM, first compound 3.16 µM) 18.1% | viability, T/C (second compound 10 µM, first compound 10 µM) 21.3%
< 31.6 nM: IC50 [4] | IC50 [5] | IC50 [6]
